Data reported in patent US12365674B2, “Inhibitors of histone deacetylase useful for the treatment or prevention of HIV infection” (Merck Sharp & Dohme LLC, priority 2019, dated 2025).
Where two headings read alike, the source gives them in different places.

System: KARN cells (Jurkat 2C4)
Test: KARN assay (luciferase induction in latently HIV-infected Jurkat 2C4 cells)
Format: cell-based
Conditions: ~20 hr, luciferase induction relative to 2 μM SAHA (100%)
Description: KARN cells (Jurkat 2C4) were licensed from the laboratory of Dr. John Karn, Case Western Reserve University, School of Medicine. The details regarding this cell line are published (Pearson, R., Kin, Y. K., Hokello, J., Lassen, K., Friedman, J., Tyagi, M., Karn, J., 2008, J. Virol. 82:12291-12303). The cells were grown in a T175 flask (Thermo Fisher, catalog number 159910) in RPMI 1640 containing L-glutamine and phenol red (Life Technologies, catalog number 11875-085), 5% heat inactivated fetal bovine serum (FBS; Life Technologies, catalog number 10100-147) and 100 μg/ml Penicillin-Streptomycin (Life Technologies, catalog number 15140-122) at 37° C. An atmosphere of 5% CO2 and 90% humidity was used for all culture work. Cells were split and reseeded into T175 flasks at a density of 0.2×10^6 cells/ml, in 40 ml of media, every 3-4 days.
Day 1: After the 3-4 day growth period, the cells were transferred from the T175 flask to a 50 ml conical tube and gently pelleted at 1000 rpm for 5 minutes. The supernatant was removed and the cells gently resuspended in assay media RPMI 1640 medium containing L-glutamine but without Phenol Red (Life Technologies, catalog number 11835-030), 5% FBS and 100 μg/ml Penicillin-Streptomycin, and then reseeded such that the original flask is now divided into two T175 flasks. These flasks were returned to the incubator.
Day 2: Cell Preparation: The next day, the cells were transferred from each T175 flask to an individual 50 ml conical tube and gently pelleted at 1000 rpm for 5 minutes. The cells were gently resuspended in assay media (30 ml) and pelleted again. The cell pellets were each resuspended in 30 ml of RPMI 1640 medium containing L-glutamine but without Phenol Red, 100 μg/ml Penicillin-Streptomycin and containing either 0.1% or 5% normal human serum (NHS; Biospecialty, Colmar, PA, catalog number 115-00 Anticoagulant free). The cells were counted using the ViCell (Beckman Coulter, Brea, CA) and diluted as necessary. A Multidrop (Combi, Thermo Scientific, Waltham, MA) with a sterile head was used to seed the cells into the wells of a 384-well solid black plate with lid (Perkin Elmer, Waltham, MA, catalog number 6007660) at 4000 cells/30 μl/well for the 5% NHS assay media and 6000 cells/30 μl/well for 0.1% NHS assay. The plates were covered and returned to the incubator prior to compound addition.
Compound Preparation: Solutions of control inhibitor suberoylanilide hydroxamic acid (SAHA; Sigma, catalog number SML0061) and test compounds in 100% DMSO were titrated into 384-well polypropylene plates (Labcyte, San Jose, CA, catalog number P-05525) using a 20-point dose response and 2-fold dilutions. The reference compounds, DMSO and SAHA were then added to the compound plate. Using the Access system (Labcyte), 120 nl of these inhibitor and control solutions were added to the individual wells of the plates containing the cells, and the plates were then returned to the incubator for ˜20 hr (range from 18-24 hr). The final high concentration for SAHA and the test compounds in the assays was 40 μM. The final DMSO concentration in all wells was 0.4%. The minimal induction reference compound used was DMSO and the maximal induction reference compound used was SAHA (2 μM final concentration in the assay).
Day 3: The luciferase detection reagent was prepared by transferring the contents of one bottle of Steady-Glo buffer to one bottle of Steady-Glo substrate (Steady-Glo Luciferase Assay System, Promega, Madison, […], catalog number E2520), followed by gently mixing until the substrate was thoroughly dissolved and the solution was equilibrated to room temperature. The cell culture assay plates were removed from the incubator and brought to room temperature (15 min). The Steady-Glo Reagent was added to the plates (30 μl/well), which were then covered with a black lid and incubated for 10 minutes at room temperature. […]

[1] = 0.1% normal human serum, 6000 cells/well, read-out: Karn 0.1% NHS
[2] = 5% normal human serum, 4000 cells/well, read-out: Karn 5% NHS

For `COc1nc2ccccc2cc1-c1cnc([C@@H](N)COCCCC(=O)c2ncco2)[nH]1` [Compound 1, (R)-4-(2-amino-2-(5-(2-methoxyquinolin-3-yl)-1H-imidazol-2-yl)ethoxy)-1-(oxazol-2-yl)butan-1-one], which EC50 [1] is on record?
The EC50 was 11700 nM.

How did the EC50 [1] turn out when `CCC(=O)CCCOC[C@H](NC(=O)C12CCN(CC1)CC2)c1ncc(-c2cc3ccccc3nc2OC)[nH]1` [Compound 6, N-{(1R)-1-[5-(2-methoxyquinolin-3-yl)-1H-imidazol-2-yl]-2-[(4-oxohexyl)oxy]ethyl}-1-azabicyclo[2.2.2]octane-4-carboxamide] was run?
The EC50 was 8970 nM.

And the EC50 [2]?
The EC50 was 14500 nM.

`CCC(=O)CCCOC[C@H](NC(=O)[C@H]1CC12CCN(CC)CC2)c1ncc(-c2cc3ccccc3nc2OC)[nH]1` [Compound 7, (1S)-6-ethyl-N-{(1R)-1-[5-(2-methoxyquinolin-3-yl)-1H-imidazol-2-yl]-2-[(4-oxohexyl)oxy]ethyl}-6-azaspiro[2.5]octane-1-carboxamide] was tested. Which EC50 [1] did it give?
The EC50 was 2350 nM.

And the EC50 [2]?
Its EC50 is 3500 nM.

`CNC(=O)C(=O)CCCOC[C@H](NC(=O)c1cncs1)c1ncc(-c2cc3ccccc3nc2OC)[nH]1` [Compound 8, N-[(1R)-1-[5-(2-methoxyquinolin-3-yl)-1H-imidazol-2-yl]-2-{[5-(methylamino)-4,5-dioxopentyl]oxy}ethyl]-1,3-thiazole-5-carboxamide] was tested. Which EC50 [1] did it give?
Its EC50 is 80.2 nM.

What about the EC50 [2] of the same compound?
Its EC50 is 408 nM.

`CNC(=O)C(=O)CCCOC[C@H](NC(=O)C12CCN(CC1)CC2)c1ncc(-c2cc3ccccc3nc2OC)[nH]1` [Compound 9, N-[(1R)-1-[5-(2-methoxyquinolin-3-yl)-1H-imidazol-2-yl]-2-{[5-(methylamino)-4,5-dioxopentyl]oxy}ethyl]-1-azabicyclo[2.2.2]octane-4-carboxamide] was tested. Which EC50 [1] did it give?
The EC50 was 232 nM.

What about the EC50 [2] of the same compound?
Its EC50 is 466 nM.

With `COc1nc2ccccc2cc1-c1cnc([C@H](COCCCC(=O)c2ncco2)NC(=O)c2cncs2)[nH]1` [Compound 10, N-{(1R)-1-[5-(2-methoxyquinolin-3-yl)-1H-imidazol-2-yl]-2-[4-(1,3-oxazol-2-yl)-4-oxobutoxy]ethyl}-1,3-thiazole-5-carboxamide] as the compound, how does the EC50 [1] read?
The EC50 was 295 nM.

And the EC50 [2]?
The EC50 was 1500 nM.

Which results are given for `COc1nc2ccccc2cc1-c1cnc([C@H](COCCCC(=O)c2ncco2)NC(=O)[C@H]2CC23CCN(C)CC3)[nH]1` [Compound 11, (1S)-N-{(1R)-1-[5-(2-methoxyquinolin-3-yl)-1H-imidazol-2-yl]-2-[4-(1,3-oxazol-2-yl)-4-oxobutoxy]ethyl}-6-methyl-6-azaspiro[2.5]octane-1-carboxamide]?
EC50 [1]: 59.8 nM; EC50 [2]: 218 nM

Which EC50 [1] does the source give for `COc1nc2ccccc2cc1-c1cnc([C@H](COCCCC(=O)c2ncco2)NC(=O)C23CCN(CC2)CC3)[nH]1` [Compound 12, N-{(1R)-1-[5-(2-methoxyquinolin-3-yl)-1H-imidazol-2-yl]-2-[4-(1,3-oxazol-2-yl)-4-oxobutoxy]ethyl}-1-azabicyclo[2.2.2]octane-4-carboxamide] here?
Its EC50 is 252 nM.

And the EC50 [2]?
Its EC50 is 562 nM.

How did the EC50 [1] turn out when `COc1nc2ccccc2cc1-c1cnc([C@H](COCCCC(=O)c2ncco2)NC(=O)CN(C)C)[nH]1` [Compound 13, N-{(1R)-1-[5-(2-methoxyquinolin-3-yl)-1H-imidazol-2-yl]-2-[4-(1,3-oxazol-2-yl)-4-oxobutoxy]ethyl}-N~2~,N~2~- dimethylglycinamide] was run?
Its EC50 is 424 nM.

What about the EC50 [2] of the same compound?
The EC50 was 854 nM.

Which results are given for `COc1nc2ccccc2cc1-c1cnc([C@H](COCCCC(=O)c2ccon2)NC(=O)CN(C)C)[nH]1` [Compound 14, N-{(1R)-2-(4-isoxazol-3-yl-4-oxobutoxy)-1-[5-(2-methoxyquinolin-3-yl)-1H-imidazol-2-yl]ethyl}-N~2~,N~2~- dimethylglycinamide]?
EC50 [1]: 83.8 nM; EC50 [2]: 252 nM

Which results are given for `CN1CC(C(=O)N[C@@H](COCCCC(=O)c2ccon2)c2ncc(-c3ccccc3F)[nH]2)C1` [Compound 15, N-[(1R)-1-[5-(2-fluorophenyl)-1H-imidazol-2-yl]-2-(4-isoxazol-3-yl-4-oxobutoxy)ethyl]-1-methylazetidine-3-carboxamide]?
EC50 [1]: 539 nM; EC50 [2]: 548 nM

For `CN1CC(C(=O)N[C@@H](COCCCC(=O)c2ccon2)c2[nH]c(-c3ccc(F)cc3)nc2Cl)C1` [Compound 16, N-[(1R)-1-[4-chloro-2-(4-fluorophenyl)-1H-imidazol-5-yl]-2-(4-isoxazol-3-yl-4-oxobutoxy)ethyl]-1-methylazetidine-3-carboxamide], which EC50 [1] is on record?
Its EC50 is 979 nM.

What about the EC50 [2] of the same compound?
The EC50 was 1100 nM.

Which EC50 [1] does the source give for `CN(C)CC(=O)N[C@@H](COCCCC(=O)c1ccon1)c1[nH]c(-c2ccc(F)cc2)nc1Cl` [Compound 17, N-[(1R)-1-[4-chloro-2-(4-fluorophenyl)-1H-imidazol-5-yl]-2-(4-isoxazol-3-yl-4-oxobutoxy)ethyl]-N~2~,N~2~- dimethylglycinamide] here?
Its EC50 is 1490 nM.

What about the EC50 [2] of the same compound?
Its EC50 is 2420 nM.

For `CN1CCC2(CC1)C[C@@H]2C(=O)N[C@@H](COCCCC(=O)c1ccon1)c1[nH]c(-c2ccc(F)cc2)nc1Cl` [Compound 18, (1S)-N-[(1R)-1-[4-chloro-2-(4-fluorophenyl)-1H-imidazol-5-yl]-2-(4-isoxazol-3-yl-4-oxobutoxy)ethyl]-6-methyl-6-azaspiro[2.5]octane-1-carboxamide], which EC50 [1] is on record?
Its EC50 is 77.7 nM.

What about the EC50 [2] of the same compound?
Its EC50 is 109 nM.

Which results are given for `COc1cc2nc(C)ccc2cc1-c1cnc([C@H](COCCCC(=O)c2cc(C)on2)NC(=O)C2CN(C)C2)[nH]1` [Compound 19, N-{(1R)-1-[5-(7-methoxy-2-methylquinolin-6-yl)-1H-imidazol-2-yl]-2-[4-(5-methylisoxazol-3-yl)-4-oxobutoxy]ethyl}-1-methylazetidine-3-carboxamide]?
EC50 [1]: 374 nM; EC50 [2]: 449 nM

Which EC50 [1] does the source give for `COc1cc2nc(C)ccc2cc1-c1cnc([C@H](COCCCC(=O)c2cc(C)on2)NC(=O)[C@H]2CC23CCN(C)CC3)[nH]1` [Compound 20, (1S)-N-{(1R)-1-[5-(7-methoxy-2-methylquinolin-6-yl)-1H-imidazol-2-yl]-2-[4-(5-methylisoxazol-3-yl)-4-oxobutoxy]ethyl}-6-methyl-6-azaspiro[2.5]octane-1-carboxamide] here?
The EC50 was 40.5 nM.

What about the EC50 [2] of the same compound?
Its EC50 is 55.1 nM.

What does the source list for `Cc1ccc2cc(-c3cnc([C@H](CSCCCC(=O)c4ncco4)NC(=O)[C@H]4CC45CCN(C)CC5)[nH]3)ccc2n1` [Compound 21, (1S)-6-methyl-N-[(1R)-1-[5-(2-methylquinolin-6-yl)-1H-imidazol-2-yl]-2-{[4-(1,3-oxazol-2-yl)-4-oxobutyl]sulfanyl}ethyl]-6-azaspiro[2.5]octane-1-carboxamide]?
EC50 [1]: 60.7 nM; EC50 [2]: 64.4 nM
